How the values were obtained:
Assay type in all cases: in vivo
[1] = tested on: foxtail, giant (giant foxtail, Setaria faberii); assay: Test A pre-/postemergence: foxtail, giant; details: for Foxtail, Giant plant response rating: Postemergence; for Plant response rating, Foxtail, Giant: Preemergence
Text: (§1) Seeds of barnyardgrass (Echinochloa crus-galli), crabgrass, large (large crabgrass, Digitaria sanguinalis), foxtail, giant (giant foxtail, Setaria faberii), morningglory (Ipomoea spp.), pigweed (Amaranthus retroflexus), velvetleaf (Abutilon theophrasti), wheat (Triticum aestivum), and corn (Zea mays) were planted into a blend of loam soil and sand and treated preemergence with a directed soil spray using test chemicals formulated in a non-phytotoxic solvent mixture which included a surfactant. At the same time these species were also treated with postemergence applications of test chemicals formulated in the same manner.
(§2) Plants ranged in height from two to ten cm and were in the one- to two-leaf stage for the postemergence treatment. Treated plants and untreated controls were maintained in a greenhouse for approximately ten days, after which time all treated plants were compared to untreated controls and visually evaluated for injury. Plant response ratings, summarized in Table A, are based on a 0 to 100 scale where 0 is no effect and 100 is complete control. A dash (-) response means no test result.

[2] = tested on: morningglory (Ipomoea spp.); assay: Test A pre-/postemergence: morningglory; details: for Morningglory plant response rating: Postemergence; for Plant response rating, Morningglory: Preemergence
Text: as §1, §2

[3] = tested on: barnyardgrass (Echinochloa crus-galli); assay: Test A pre-/postemergence: barnyardgrass; details: for Barnyardgrass plant response rating: Postemergence; for Plant response rating, Barnyardgrass: Preemergence
Text: as §1, §2

[4] = tested on: wheat (Triticum aestivum); assay: Test A pre-/postemergence: wheat; details: for Wheat plant response rating: Postemergence; for Plant response rating, Wheat: Preemergence
Text: as §1, §2

corn (Zea mays) = assay: Test A pre-/postemergence: corn; details: for Corn plant response rating: Postemergence; for Plant response rating, Corn: Preemergence
Text: as §1, §2

[5] = tested on: crabgrass, large (large crabgrass, Digitaria sanguinalis); assay: Test A pre-/postemergence: crabgrass, large; details: for Crabgrass, Large plant response rating: Postemergence; for Plant response rating, Crabgrass, Large: Preemergence
Text: as §1, §2

[6] = tested on: pigweed (Amaranthus retroflexus); assay: Test A pre-/postemergence: pigweed; details: for Pigweed plant response rating: Postemergence; for Plant response rating, Pigweed: Preemergence
Text: as §1, §2

[7] = tested on: velvetleaf (Abutilon theophrasti); assay: Test A pre-/postemergence: velvetleaf; details: for Velvetleaf plant response rating: Postemergence; for Plant response rating, Velvetleaf: Preemergence
Text: as §1, §2

[8] = 125 g ai/ha, 0 to 100 scale, 0 is no effect, 100 is complete control
[9] = 500 g ai/ha, visual rating on 0 to 100 scale (0 no effect, 100 complete control), approximately ten days
[10] = 125 g ai/ha, 0 to 100 scale where 0 is no effect and 100 is complete control
[11] = 500 g ai/ha, 0 to 100 scale, 0 is no effect, 100 is complete control
[12] = 125 g ai/ha, 0 to 100 scale (0 no effect, 100 complete control)
[13] = 500 g ai/ha, 0 to 100 scale (0 no effect, 100 complete control)

Row | SMILES | Foxtail, Giant plant response rating [1, 8] | Foxtail, Giant plant response rating [1, 9] | Plant response rating, Foxtail, Giant [1, 10] | Morningglory plant response rating [2, 8] | Morningglory plant response rating [2, 9] | Plant response rating, Morningglory [2, 10] | Barnyardgrass plant response rating [3, 8] | Barnyardgrass plant response rating [3, 9] | Wheat plant response rating [4, 8] | Wheat plant response rating [4, 9] | Plant response rating, Wheat [4, 10] | Corn plant response rating (corn (Zea mays); [8]) | Corn plant response rating (corn (Zea mays); [9]) | Crabgrass, Large plant response rating [5, 8] | Crabgrass, Large plant response rating [5, 9] | Pigweed plant response rating [6, 8] | Pigweed plant response rating [6, 9] | Plant response rating, Pigweed [6, 10] | Velvetleaf plant response rating [7, 8] | Velvetleaf plant response rating [7, 9] | also measured
1 | Cc1nn(-c2ccc(F)cc2)nc1Oc1cccc(OC(F)(F)F)c1 [Compound 100] | 50 | 70 | 20 | 90 | 90 | 0 | 10 | 30 | 0 | 20 | 0 | 10 | 20 | 60 | 80 | 80 | 90 | 10 | 30 | 70 | Plant response rating, Foxtail, Giant [1, 11]: 70; Plant response rating, Morningglory [2, 11]: 0; Plant response rating, Barnyardgrass [3, 12]: 0; Plant response rating, Barnyardgrass [3, 11]: 20; Plant response rating, Wheat [4, 11]: 0; Plant response rating, Corn (corn (Zea mays); [12]): 0; Plant response rating, Corn (corn (Zea mays); [11]): 0; Plant response rating, Crabgrass, Large [5, 12]: 10; Plant response rating, Crabgrass, Large [5, 11]: 90; Plant response rating, Pigweed [6, 11]: 90; Plant response rating, Velvetleaf [7, 10]: 0; Plant response rating, Velvetleaf [7, 11]: 0
2 | Cc1nn(-c2ccc(F)cc2)nc1Oc1cc(C(F)(F)F)ccn1 [Compound 128] | 0 | 10 | 0 | 30 | 30 | 0 | 0 | 20 | 0 | 0 | 0 | 10 | 10 | 10 | 20 | 30 | 40 | 0 | 20 | 30 | Plant response rating, Foxtail, Giant [1, 13]: 20; Plant response rating, Morningglory [2, 13]: 20; Plant response rating, Barnyardgrass [3, 10]: 0; Plant response rating, Barnyardgrass [3, 13]: 0; Plant response rating, Wheat [4, 13]: 0; Plant response rating, Corn (corn (Zea mays); [10]): 0; Plant response rating, Corn (corn (Zea mays); [13]): 0; Plant response rating, Crabgrass, Large [5, 10]: 0; Plant response rating, Crabgrass, Large [5, 13]: 20; Plant response rating, Pigweed [6, 13]: 0; Plant response rating, Velvetleaf [7, 10]: 0; Plant response rating, Velvetleaf [7, 13]: 0
3 | Cc1nn(-c2ccc(F)cc2)nc1Cn1cnc(C(F)(F)F)c1 [Compound 112] | 20 | 80 | 60 | 60 | 100 | 0 | 0 | 30 | 10 | 30 | 0 | 20 | 20 | 50 | 90 | 90 | 100 | 90 | 50 | 60 | Plant response rating, Foxtail, Giant [1, 13]: 90; Plant response rating, Morningglory [2, 13]: 20; Plant response rating, Barnyardgrass [3, 10]: 0; Plant response rating, Barnyardgrass [3, 13]: 40; Plant response rating, Wheat [4, 13]: 0; Plant response rating, Corn (corn (Zea mays); [10]): 0; Plant response rating, Corn (corn (Zea mays); [13]): 0; Plant response rating, Crabgrass, Large [5, 10]: 80; Plant response rating, Crabgrass, Large [5, 13]: 100; Plant response rating, Pigweed [6, 13]: 100; Plant response rating, Velvetleaf [7, 10]: 0; Plant response rating, Velvetleaf [7, 13]: 20
4 | OCc1nn(-c2ccc(C(F)(F)F)cc2)nc1Oc1cccc(C(F)(F)F)c1 [Compound 110] | 20 | 30 | 0 | 90 | 100 | 10 | 20 | 30 | 10 | 30 | 0 | 20 | 30 | 50 | 70 | 70 | 100 | 0 | 30 | 60 | Plant response rating, Foxtail, Giant [1, 11]: 20; Plant response rating, Morningglory [2, 11]: 20; Plant response rating, Barnyardgrass [3, 12]: 0; Plant response rating, Barnyardgrass [3, 11]: 0; Plant response rating, Wheat [4, 11]: 0; Plant response rating, Corn (corn (Zea mays); [12]): 0; Plant response rating, Corn (corn (Zea mays); [11]): 0; Plant response rating, Crabgrass, Large [5, 12]: 0; Plant response rating, Crabgrass, Large [5, 11]: 20; Plant response rating, Pigweed [6, 11]: 50; Plant response rating, Velvetleaf [7, 10]: 0; Plant response rating, Velvetleaf [7, 11]: 10
5 | Cc1nn(-c2ccc(C(F)(F)F)cc2)nc1Oc1ccc(Cl)c(C(F)(F)F)c1 [Compound 103] | 0 | 20 | 0 | 0 | 0 | 0 | 0 | 0 | 0 | 0 | 0 | 0 | 0 | 0 | 30 | 50 | 70 | 10 | 0 | 10 | Plant response rating, Foxtail, Giant [1, 11]: 0; Plant response rating, Morningglory [2, 11]: 0; Plant response rating, Barnyardgrass [3, 12]: 0; Plant response rating, Barnyardgrass [3, 11]: 0; Plant response rating, Wheat [4, 11]: 0; Plant response rating, Corn (corn (Zea mays); [12]): 0; Plant response rating, Corn (corn (Zea mays); [11]): 0; Plant response rating, Crabgrass, Large [5, 12]: 0; Plant response rating, Crabgrass, Large [5, 11]: 10; Plant response rating, Pigweed [6, 11]: 30; Plant response rating, Velvetleaf [7, 10]: 0; Plant response rating, Velvetleaf [7, 11]: 0
6 | Cc1nn(-c2ccc(F)cc2)nc1Oc1ccc(Cl)c(C(F)(F)F)c1 [Compound 99] | 20 | 80 | 10 | 60 | 80 | 0 | 10 | 30 | 0 | 20 | 0 | 20 | 20 | 30 | 70 | 70 | 100 | 20 | 10 | 60 | Plant response rating, Foxtail, Giant [1, 11]: 80; Plant response rating, Morningglory [2, 11]: 0; Plant response rating, Barnyardgrass [3, 12]: 0; Plant response rating, Barnyardgrass [3, 11]: 10; Plant response rating, Wheat [4, 11]: 0; Plant response rating, Corn (corn (Zea mays); [12]): 0; Plant response rating, Corn (corn (Zea mays); [11]): 0; Plant response rating, Crabgrass, Large [5, 12]: 30; Plant response rating, Crabgrass, Large [5, 11]: 60; Plant response rating, Pigweed [6, 11]: 60; Plant response rating, Velvetleaf [7, 10]: 0; Plant response rating, Velvetleaf [7, 11]: 20

Reference: patent US9302999B2, “Substituted triazoles as herbicides” (E. I. DU PONT DE NEMOURS AND COMPANY, priority 2012, dated 2016)
